From PubChem BioAssay AID1918948 (Molecular Pharmacology Branch, DTP, NCI, 2023)

Test system: K-562 leukemia growth, % test/control
Assay: Anticancer human tumor K-562 cell line growth inhibition;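 note: spheroids exposed to compounds for 7 days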;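 for viability, T/C: 100% = DMSO vehicle wells and lower values mean fewer viable cells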
Conditions: spheroids with HUVEC and MSC; for IC50: curve of first compound; for viability, T/C: stronger effect = lower value
Procedure, shortened: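 Multicellular complex spheroids of tumor cells with human endothelial cells (HUVEC) and mesenchymal stem cells; the LSD1 inhibitor iadademstat was combined with standard-of-care or investigational agents. Top concentration at or near clinical Cmax, half-log dilutions; final DMSO ≤0.25%.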

[1] = second compound 0.1 µM, first compound 0.0316 µM
[2] = second compound 0.1 µM, first compound 0.1 µM
[3] = second compound 0.316 µM, first compound 0.0316 µM
[4] = second compound 0.316 µM, first compound 0.1 µM
[5] = second compound 1 µM, first compound 0.0316 µM
[6] = second compound 1 µM, first compound 0.1 µM
[7] = second compound 3.16 µM, first compound 0.0316 µM
[8] = second compound 3.16 µM, first compound 0.1 µM
[9] = second compound 10 µM, first compound 0.0316 µM
[10] = second compound 10 µM, first compound 0.1 µM

## CC1(C)CCC(CN2CCN(c3ccc(C(=O)NS(=O)(=O)c4ccc(NCC5CCOCC5)c([N+](=O)[O-])c4)c(Oc4cnc5[nH]ccc5c4)c3)CC2)=C(c2ccc(Cl)cc2)C1 + NC1CC1c1ccc(-c2cccc(O)c2)cc1
Second compound 0.1 µM
  IC50: 4.65 µM
Second compound 0.316 µM
  IC50: 4.7 µM
Second compound 1 µM
  IC50: 4.52 µM
Second compound 3.16 µM
  IC50: 4.47 µM
Second compound 10 µM
  IC50: 3.19 µM
[1]
  viability, T/C: 112%
[2]
  viability, T/C: 114%
Second compound 0.1 µM, first compound 0.316 µM
  viability, T/C: 118%
Second compound 0.1 µM, first compound 1 µM
  viability, T/C: 121%
Second compound 0.1 µM, first compound 3.16 µM
  viability, T/C: 74.6%
Second compound 0.1 µM, first compound 10 µM
  viability, T/C: 1.4%
[3]
  viability, T/C: 104%
[4]
  viability, T/C: 109%
Second compound 0.316 µM, first compound 0.316 µM
  viability, T/C: 110%
Second compound 0.316 µM, first compound 1 µM
  viability, T/C: 114%
Second compound 0.316 µM, first compound 3.16 µM
  viability, T/C: 75.4%
Second compound 0.316 µM, first compound 10 µM
  viability, T/C: 1.76%
[5]
  viability, T/C: 102%
[6]
  viability, T/C: 106%
Second compound 1 µM, first compound 0.316 µM
  viability, T/C: 106%
Second compound 1 µM, first compound 1 µM
  viability, T/C: 108%
Second compound 1 µM, first compound 3.16 µM
  viability, T/C: 71.8%
Second compound 1 µM, first compound 10 µM
  viability, T/C: 1.59%
[7]
  viability, T/C: 105%
[8]
  viability, T/C: 105%
Second compound 3.16 µM, first compound 0.316 µM
  viability, T/C: 107%
Second compound 3.16 µM, first compound 1 µM
  viability, T/C: 102%
Second compound 3.16 µM, first compound 3.16 µM
  viability, T/C: 70.7%
Second compound 3.16 µM, first compound 10 µM
  viability, T/C: 1.97%
[9]
  viability, T/C: 102%
[10]
  viability, T/C: 104%
Second compound 10 µM, first compound 0.316 µM
  viability, T/C: 105%
Second compound 10 µM, first compound 1 µM
  viability, T/C: 104%
Second compound 10 µM, first compound 3.16 µM
  viability, T/C: 50.4%
Second compound 10 µM, first compound 10 µM
  viability, T/C: 1.78%

## Cn1ncnc1C1c2n[nH]c(=O)c3cc(F)cc(c23)NC1c1ccc(F)cc1 (stereo not given) + NC1CC1c1ccc(-c2cccc(O)c2)cc1
Second compound 0.1 µM
  IC50: > 0.1 µM
Second compound 0.316 µM
  IC50: > 0.1 µM
Second compound 1 µM
  IC50: > 0.1 µM
Second compound 3.16 µM
  IC50: > 0.1 µM
Second compound 10 µM
  IC50: > 0.1 µM
Second compound 0.1 µM, first compound 0.000316 µM
  viability, T/C: 112%
Second compound 0.1 µM, first compound 0.001 µM
  viability, T/C: 110%
Second compound 0.1 µM, first compound 0.00316 µM
  viability, T/C: 108%
Second compound 0.1 µM, first compound 0.01 µM
  viability, T/C: 108%
[1]
  viability, T/C: 105%
[2]
  viability, T/C: 101%
Second compound 0.316 µM, first compound 0.000316 µM
  viability, T/C: 108%
Second compound 0.316 µM, first compound 0.001 µM
  viability, T/C: 105%
Second compound 0.316 µM, first compound 0.00316 µM
  viability, T/C: 105%
Second compound 0.316 µM, first compound 0.01 µM
  viability, T/C: 105%
[3]
  viability, T/C: 101%
[4]
  viability, T/C: 97.2%
Second compound 1 µM, first compound 0.000316 µM
  viability, T/C: 106%
Second compound 1 µM, first compound 0.001 µM
  viability, T/C: 102%
Second compound 1 µM, first compound 0.00316 µM
  viability, T/C: 97.8%
Second compound 1 µM, first compound 0.01 µM
  viability, T/C: 96.7%
[5]
  viability, T/C: 97.2%
[6]
  viability, T/C: 95.2%
Second compound 3.16 µM, first compound 0.000316 µM
  viability, T/C: 106%
Second compound 3.16 µM, first compound 0.001 µM
  viability, T/C: 100%
Second compound 3.16 µM, first compound 0.00316 µM
  viability, T/C: 95.6%
Second compound 3.16 µM, first compound 0.01 µM
  viability, T/C: 98.8%
[7]
  viability, T/C: 98.5%
[8]
  viability, T/C: 93.2%
Second compound 10 µM, first compound 0.000316 µM
  viability, T/C: 101%
Second compound 10 µM, first compound 0.001 µM
  viability, T/C: 101%
Second compound 10 µM, first compound 0.00316 µM
  viability, T/C: 99.7%
Second compound 10 µM, first compound 0.01 µM
  viability, T/C: 98.4%
[9]
  viability, T/C: 95.4%
[10]
  viability, T/C: 89.1%

## NS(=O)(=O)OCC1CC(n2ccc3c(NC4CCc5ccccc54)ncnc32)CC1O (stereo not given) + NC1CC1c1ccc(-c2cccc(O)c2)cc1
Second compound 0.1 µM
  IC50: < 0.00949 µM
Second compound 0.316 µM
  IC50: < 0.00949 µM
Second compound 1 µM
  IC50: < 0.00949 µM
Second compound 3.16 µM
  IC50: < 0.00949 µM
Second compound 10 µM
  IC50: < 0.00949 µM
Second compound 0.1 µM, first compound 0.00949 µM
  viability, T/C: 50.7%
Second compound 0.1 µM, first compound 0.03 µM
  viability, T/C: 32.8%
Second compound 0.1 µM, first compound 0.0949 µM
  viability, T/C: 37.7%
Second compound 0.1 µM, first compound 0.3 µM
  viability, T/C: 19.2%
Second compound 0.1 µM, first compound 0.949 µM
  viability, T/C: 11.2%
Second compound 0.1 µM, first compound 3 µM
  viability, T/C: 4.04%
Second compound 0.316 µM, first compound 0.00949 µM
  viability, T/C: 47%
Second compound 0.316 µM, first compound 0.03 µM
  viability, T/C: 29.9%
Second compound 0.316 µM, first compound 0.0949 µM
  viability, T/C: 32%
Second compound 0.316 µM, first compound 0.3 µM
  viability, T/C: 16.3%
Second compound 0.316 µM, first compound 0.949 µM
  viability, T/C: 10.3%
Second compound 0.316 µM, first compound 3 µM
  viability, T/C: 3.18%
Second compound 1 µM, first compound 0.00949 µM
  viability, T/C: 46.8%
Second compound 1 µM, first compound 0.03 µM
  viability, T/C: 27.1%
Second compound 1 µM, first compound 0.0949 µM
  viability, T/C: 32.8%
Second compound 1 µM, first compound 0.3 µM
  viability, T/C: 14.8%
Second compound 1 µM, first compound 0.949 µM
  viability, T/C: 10.3%
Second compound 1 µM, first compound 3 µM
  viability, T/C: 3.44%
Second compound 3.16 µM, first compound 0.00949 µM
  viability, T/C: 45.6%
Second compound 3.16 µM, first compound 0.03 µM
  viability, T/C: 25.7%
Second compound 3.16 µM, first compound 0.0949 µM
  viability, T/C: 30.2%
Second compound 3.16 µM, first compound 0.3 µM
  viability, T/C: 13.2%
Second compound 3.16 µM, first compound 0.949 µM
  viability, T/C: 8.49%
Second compound 3.16 µM, first compound 3 µM
  viability, T/C: 1.8%
Second compound 10 µM, first compound 0.00949 µM
  viability, T/C: 30.5%
Second compound 10 µM, first compound 0.03 µM
  viability, T/C: 19.8%
Second compound 10 µM, first compound 0.0949 µM
  viability, T/C: 21.2%
Second compound 10 µM, first compound 0.3 µM
  viability, T/C: 9.28%
Second compound 10 µM, first compound 0.949 µM
  viability, T/C: 2.95%
Second compound 10 µM, first compound 3 µM
  viability, T/C: 0.72%
